# Assay results as given in US10787430B2, “Hemoglobin modifier compounds and uses thereof” (FronThera U.S. Pharmaceuticals LLC, priority 2016, dated 2020).
# Assays:
# [1] = tested on: sickled HbSS whole blood (RBC sickling); assay: Anti-sickling assay in HbSS sickled blood under hypoxic induction; assay type: cell-based, human; conditions: HbSS whole blood 26% Hct, 20 mins hypoxic induction; 0.2 mM compounds (FIG. 2)
# Description: Materials: • Blood collected after informed consent from sickle cell individuals. • HBS buffer: 10 mM HEPES, 145 mM NaCl, pH 7.4 • Hemox buffer: Buffer provided for the hemox analyzer • Control Compound stock solution in DMSO (50 mM) stored at RT • Control Compound work solution (CWS): 10 μl of DMSO was added by Hamilton to 90 μl of HBS buffer (20 mM Hepes, 145 mM NaCl, pH 7.4) to create a working solution with a final concentration of 5 mM drug and 10% DMSO). • Compound stock solution in DMSO (50 mM) stored at RT • Compound work solution (WS): 10 μl of DMSO was added by Hamilton to 90 μl of HBS buffer (20 mM Hepes, 145 mM NaCl, pH 7.4) to create a working solution with a final concentration of 5 mM drug and 10% DMSO). • DMSO buffer: 10% DMSO (DB), same as WS but without drug. This will be used to maintain DMSO the same for different drug incubations. Test Protocol:
# Collect blood from Clinic: Blood were collected after informed consent according to an approved IRB protocol. • Run Advia 120 analysis on SCD blood, to determine Hct. • Dilute blood to 20% Hct with HBS to total volume of 3 ml. • This cell suspension (CS) will be used for all experiments.
# Incubation • 1. 200 μl CS • 2. 200 μl CS+20 μl CWS (5 mM diluted 10 times=0.5 mM control final)−(1% DMSO) • 3. 200 μl CS+20 μl WS (5 mM diluted 10 times=0.5 mM control final)−(1% DMSO) • 4. 200 μl CS+8 μl WS (0.2 mM drug final)+DB−(1% DMSO) • Incubate 30 minutes at 37° C.
# 50 μl into 1 ml HBS+2% BSA buffer. Eight time points (0-20 minutes) at 2% oxygen, 10,000 events each)
# The sickling runs provide sets samples that need to be run on the AMNIS image flow and are subsequently analyzed with pixel analysis software.
# Drug was provided at 50 mM concentration in DMSO, and stored at room temperature until use. 10 μl of DMSO was added by Hamilton to 90 μl of HBS buffer (20 mM Hepes, 145 mM NaCl, pH 7.4) to create a working solution with a final concentration of 5 mM drug and 10% DMSO). Blood was collected from a sickle cell patient in EDTA anticoagulant. To 200 μl of whole blood, a 20 or 8 μl of working solution was added resulting in a final drug concentration of 0.5 mM or 0.2 mM respectively. The DMSO concentration in both was corrected to 1%. The final hematocrit was measured by ADVIA analysis to be 26%. […] The delta hemox (%) comparing Example 29e with GBT440 is shown in FIG. 1A (0.2 mM) and FIG. 1B (0.5 mM).
# Anti-sickling is shown in FIG. 2 with M: maximum percentage of sickled cells during 20 mins of hypoxic induction, T: time needed to reach 50% of M, and Z: baseline percentage of sickled cells prior to hypoxic induction.
# CYP1A2 = target: T1, CYP1A2 (Homo sapiens, UniProt P05177); assay: CYP inhibition evaluation in human liver microsomes; assay type: in vitro ADME
# T1 construct: from tissue; host or cells: human liver microsomes
# T1 sequence (P05177 1-516): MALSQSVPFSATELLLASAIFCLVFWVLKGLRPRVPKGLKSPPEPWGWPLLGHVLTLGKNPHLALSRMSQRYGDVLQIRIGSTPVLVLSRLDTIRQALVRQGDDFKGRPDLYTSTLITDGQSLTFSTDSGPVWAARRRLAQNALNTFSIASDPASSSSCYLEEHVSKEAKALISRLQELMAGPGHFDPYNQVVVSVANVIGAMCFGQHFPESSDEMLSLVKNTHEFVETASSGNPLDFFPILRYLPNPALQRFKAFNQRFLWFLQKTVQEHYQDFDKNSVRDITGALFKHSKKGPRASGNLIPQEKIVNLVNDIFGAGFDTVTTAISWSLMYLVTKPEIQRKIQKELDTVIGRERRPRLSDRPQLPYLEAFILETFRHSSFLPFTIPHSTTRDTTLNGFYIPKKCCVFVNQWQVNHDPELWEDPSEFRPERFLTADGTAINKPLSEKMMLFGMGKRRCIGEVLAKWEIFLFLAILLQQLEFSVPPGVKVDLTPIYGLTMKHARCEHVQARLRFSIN
# Source text: (§1) Example A5: CYP Inhibition Evaluation in Human Liver Microsomes
# CYP2C19 = target: T2, CYP2C19 (Homo sapiens, UniProt P33261); assay: as above; assay type: in vitro ADME
# T2 construct: from tissue; host or cells: human liver microsomes
# T2 sequence (P33261 whole entry): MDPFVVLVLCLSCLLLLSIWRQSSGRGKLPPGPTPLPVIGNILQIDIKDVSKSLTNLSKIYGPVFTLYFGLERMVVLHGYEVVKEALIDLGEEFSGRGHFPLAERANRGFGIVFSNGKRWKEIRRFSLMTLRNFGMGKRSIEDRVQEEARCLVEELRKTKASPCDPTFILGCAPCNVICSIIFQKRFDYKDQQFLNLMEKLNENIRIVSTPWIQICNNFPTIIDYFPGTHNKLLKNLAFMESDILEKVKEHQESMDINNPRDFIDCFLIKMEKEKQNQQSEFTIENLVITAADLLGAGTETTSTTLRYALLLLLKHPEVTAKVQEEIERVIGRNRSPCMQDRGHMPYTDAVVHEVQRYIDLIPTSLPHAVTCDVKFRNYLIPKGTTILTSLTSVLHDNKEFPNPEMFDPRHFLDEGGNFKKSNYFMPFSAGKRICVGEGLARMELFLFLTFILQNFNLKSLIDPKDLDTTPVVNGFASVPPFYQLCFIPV
# Source text: as §1
# CYP2C8 = target: T3, CYP2C8 (Homo sapiens, UniProt P10632); assay: as above; assay type: in vitro ADME
# T3 construct: from tissue; host or cells: human liver microsomes
# T3 sequence (P10632 1-490): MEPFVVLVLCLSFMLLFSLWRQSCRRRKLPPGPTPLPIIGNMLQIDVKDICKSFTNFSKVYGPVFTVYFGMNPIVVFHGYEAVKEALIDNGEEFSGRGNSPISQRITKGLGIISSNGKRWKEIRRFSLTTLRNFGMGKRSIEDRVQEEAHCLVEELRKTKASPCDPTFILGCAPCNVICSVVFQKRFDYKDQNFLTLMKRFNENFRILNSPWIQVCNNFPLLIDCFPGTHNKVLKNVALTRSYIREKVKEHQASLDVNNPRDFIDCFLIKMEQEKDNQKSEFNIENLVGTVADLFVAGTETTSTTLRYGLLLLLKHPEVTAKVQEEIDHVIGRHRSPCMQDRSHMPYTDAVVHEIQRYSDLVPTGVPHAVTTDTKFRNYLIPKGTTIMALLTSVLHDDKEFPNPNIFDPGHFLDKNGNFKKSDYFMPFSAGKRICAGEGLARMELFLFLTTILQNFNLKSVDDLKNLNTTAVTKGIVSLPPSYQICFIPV
# Source text: as §1
# CYP2C9 = target: T4, CYP2C9 (Homo sapiens, UniProt P11712); assay: as above; assay type: in vitro ADME
# T4 construct: from tissue; host or cells: human liver microsomes
# T4 sequence (P11712 whole entry): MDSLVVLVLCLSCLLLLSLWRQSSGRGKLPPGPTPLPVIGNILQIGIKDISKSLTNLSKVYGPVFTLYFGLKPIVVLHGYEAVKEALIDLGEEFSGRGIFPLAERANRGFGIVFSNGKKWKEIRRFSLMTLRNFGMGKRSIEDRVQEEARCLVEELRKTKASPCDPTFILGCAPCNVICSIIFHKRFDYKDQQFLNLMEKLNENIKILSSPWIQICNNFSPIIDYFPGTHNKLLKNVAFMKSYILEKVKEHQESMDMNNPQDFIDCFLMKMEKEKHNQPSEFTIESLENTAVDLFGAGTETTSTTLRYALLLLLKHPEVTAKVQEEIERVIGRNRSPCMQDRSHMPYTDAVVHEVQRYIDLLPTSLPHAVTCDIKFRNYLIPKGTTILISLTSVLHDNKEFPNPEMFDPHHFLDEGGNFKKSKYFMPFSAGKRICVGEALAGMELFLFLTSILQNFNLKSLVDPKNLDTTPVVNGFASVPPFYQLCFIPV
# Source text: as §1
# CYP2D6 = target: T5, CYP2D6 (Homo sapiens, UniProt P10635); assay: as above; assay type: in vitro ADME
# T5 construct: from tissue; host or cells: human liver microsomes
# T5 sequence (P10635 whole entry): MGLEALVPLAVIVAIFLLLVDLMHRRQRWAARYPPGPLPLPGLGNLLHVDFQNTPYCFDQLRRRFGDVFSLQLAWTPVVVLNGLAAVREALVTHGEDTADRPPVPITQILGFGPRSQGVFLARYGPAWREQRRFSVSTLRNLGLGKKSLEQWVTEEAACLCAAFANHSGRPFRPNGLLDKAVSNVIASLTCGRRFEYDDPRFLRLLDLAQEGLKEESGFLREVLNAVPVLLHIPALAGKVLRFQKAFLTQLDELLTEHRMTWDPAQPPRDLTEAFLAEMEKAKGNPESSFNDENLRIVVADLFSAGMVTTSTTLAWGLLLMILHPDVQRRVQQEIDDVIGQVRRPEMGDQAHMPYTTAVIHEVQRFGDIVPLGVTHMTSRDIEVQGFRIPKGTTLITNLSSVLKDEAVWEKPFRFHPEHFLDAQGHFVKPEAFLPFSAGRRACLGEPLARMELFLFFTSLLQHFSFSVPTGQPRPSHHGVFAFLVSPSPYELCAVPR
# Source text: as §1
# CYP3A4-M = target: T6, CYP3A4-M (Homo sapiens, UniProt P08684); assay: as above; assay type: in vitro ADME
# T6 construct: from tissue; host or cells: human liver microsomes
# T6 sequence (P08684 whole entry): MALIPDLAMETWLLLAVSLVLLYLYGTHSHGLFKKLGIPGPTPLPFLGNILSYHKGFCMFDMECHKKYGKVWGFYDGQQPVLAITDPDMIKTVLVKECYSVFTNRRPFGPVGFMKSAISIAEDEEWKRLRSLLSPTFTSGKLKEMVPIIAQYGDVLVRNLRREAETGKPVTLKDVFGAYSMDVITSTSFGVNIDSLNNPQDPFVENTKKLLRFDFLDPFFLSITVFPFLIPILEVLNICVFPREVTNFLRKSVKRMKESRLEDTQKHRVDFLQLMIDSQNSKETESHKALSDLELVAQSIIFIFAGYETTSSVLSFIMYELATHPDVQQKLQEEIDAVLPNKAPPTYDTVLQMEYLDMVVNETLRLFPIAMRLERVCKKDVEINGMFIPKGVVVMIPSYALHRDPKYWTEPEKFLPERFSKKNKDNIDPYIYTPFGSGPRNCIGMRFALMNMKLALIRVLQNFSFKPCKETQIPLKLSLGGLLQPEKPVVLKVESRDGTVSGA
# Source text: as §1
# [2] = Microsome stability evaluation in rat liver microsomes; assay type: in vitro ADME; conditions: read-out: Rat microsome, t½
# Source text: (§2) Example A6: Microsome Stability Evaluation in Human and Rat Liver Microsomes
# [3] = Microsome stability evaluation in human liver microsomes; assay type: in vitro ADME; conditions: read-out: Human microsome, t½
# Source text: as §2
structure (smiles),measurement,setting,value
"[2H]C([2H])(Oc1cccc(O)c1C=O)c1cncnc1-c1ccnn1C(C)C [Example 38, 2-hydroxy-6-((4-(1-isopropyl-1H-pyrazol-5-yl)pyrimidin-5-yl)methoxy-d2)benzaldehyde]",Reduction in % sickled cells compared to untreated,[1],−30.6%
same,IC50,CYP1A2,> 30 µM
same,IC50,CYP2C19,8.61 µM
same,IC50,CYP2C8,25.2 µM
same,IC50,CYP2C9,10.6 µM
same,IC50,CYP2D6,> 30 µM
same,IC50,CYP3A4-M,> 30 µM
same,half-life,[2],18 min
same,half-life,[3],38 min
